Several values for one entry are separate records, joined by “and”; a condition that tells them apart may be missing. Identical values can stand only once. Peptide text beside a SMILES is read from it.
Tests used:
BSA = target: T1, BSA (Bos taurus, UniProt P02769); assay: dialysis-based binding assay with 14C-GPG-NH2
T1 construct: purchased Sigma
Description: (§1) To determine whether the peptide agents listed in Table 1 bound to the viral capsid protein p24, an in vitro binding assay was performed. As described previously, a dialysis-based binding assay was conducted using a dialysis membrane with a pore size of less than 10 kD. (Slide-A-Lyzer, Pierce). Fifty microliters of a 10 μM stock of the recombinant proteins p24, gp120 (gifts from the AIDS program, NCIB) and BSA (Sigma) were introduced into separate dialysis membranes and the proteins were dialyzed at 4° C. for 2 days against a 500 ml solution composed of 150 mM NaCl and 50 mM Tris-HCl, pH 7.4 buffer, and 27.5 μM of ^14C-GPG-NH2 (Amersham Ltd. UK). Subsequently, ten or five microliter aliquots of the dialyzed p24, gp 120, and BSA were removed and mixed with 3 ml of ReadySafe (Beckman) in a scintillation vial. The C^14 was then detected by scintillation counting.
(§2) In Table 2, the results from a representative dialysis-based binding assay are provided. […] The amount of radioactive GPG-NH2 associated with p24 was 7.5 times greater than that present in the buffer.

recombinant gp120 = target: T2, recombinant gp120 (Human immunodeficiency virus type 1 group M subtype B, UniProt P03375); assay: dialysis-based binding assay with 14C-GPG-NH2
T2 construct: recombinant proteins p24, gp120 (gifts from the AIDS program, NCIB); AIDS program, NCIB (gift)
Description: To determine whether the peptide agents listed in Table 1 bound to the viral capsid protein p24, an in vitro binding assay was performed. As described previously, a dialysis-based binding assay was conducted using a dialysis membrane with a pore size of less than 10 kD. (Slide-A-Lyzer, Pierce). […] Subsequently, ten or five microliter aliquots of the dialyzed p24, gp 120, and BSA were removed and mixed with 3 ml of ReadySafe (Beckman) in a scintillation vial. The C^14 was then detected by scintillation counting.

[1] = target: T3, recombinant p24 (viral capsid protein) (Human immunodeficiency virus type 1 group M subtype B, UniProt P04591); assay: dialysis-based binding assay with 14C-GPG-NH2; set-up: species or system HIV-1
T3 construct: AIDS program, NCIB (gift)
Description: as §1, §2

HIV-1 = conditions: summary of Experiments 1-6
Description: (§3) Next, the ability of peptide agents to inhibit viral infection was evaluated. Accordingly, the peptide agents listed in Table 1 were used in several viral (e.g., HIV-1, HIV-2, and SIV) infection assays. […] Once inhibitory tripeptides were identified, more specific assays were conducted to determine the effect of varying concentrations of the selected tripeptides and combination treatments (e.g., the use of more than one modified tripeptide in combination).

HIV-1 SF-2 virus = assay: electron microscopy of HIV-1 particles from infected HUT78 cells; assay type: cell-based; conditions: cells fixed day 14
Description: Evidence that peptide agents inhibit or prevent viral capsid protein polymerization and, thus, proper nucleocapsid assembly was obtained by performing electron microscopy on HIV-1 particles that were contacted with a modified small peptide. In this set of experiments, HUT78 cells were infected with HIV-1 SF-2 virus at 300TCID50 for 1 hr at 37° C. Subsequently, the infected cells were washed and pelleted 3 times. […] GPG-NH2 was then added into the cell cultures 3, 5 or 7 days post infection at concentration of 1 μm or 10 μM. A control sample was administered 0.5 μM Ritonavir (a protease inhibitor). The cells were cultured until day 14, at which point, the cells were fixed in 2.5% glutaraldehyde by conventional means. The fixed cells were then post-fixed in 1% OSO4 and were dehydrated, embedded with epoxy resins, and the blocks were allowed to polymerize. Epon sections of virus infected cells were made approximately 60-80 nm thin in order to accommodate the width of the nucleocapsid. The sections were mounted to grids stained with 1.0% uranyl acetate and were analyzed in a Zeiss CEM 902 microscope at an accelerating voltage of 80 kV. The microscope was equipped with a spectrometer to improve image quality and a liquid nitrogen cooling trap was used to reduce beam damage. The grids having sections of control and GPG-NH2 incubated cells were examined in several blind studies.
(See FIG. 1). […]

HIV-2 = assay: viral infection assay in H9 cells, reverse transcriptase (RT) activity in supernatant; assay type: cell-based; conditions: summary of the experiments in H9 cells
Description: as §3
(§4) To monitor the replication of virus, reverse transcriptase (RT) activity in the supernatants was assayed using a commercially available Lenti-RT activity kit. (Cavidi Tech, Uppsala, Sweden). The amount of RT was determined with the aid of a regression line of standards. […] Syncytium formation was also monitored by microscopic examination.
(§5) (Cavidi Tech). The amount of RT was determined with the aid of a regression line of standards.

SIV = assay: as above; assay type: cell-based; conditions: summary of the experiments in H9 cells
Description: as §3, §4, §5

[2] = target: major capsid protein (p24) of HIV-1 (HIV-1) (UniProt P04591)
[3] = target: major capsid protein (p24) of HIV-1 (HIV-1) (UniProt P04591); remark: listed apart in the source
[4] = target: viral capsid protein (p24) of SIV (SIV)
[5] = target: viral capsid protein (p24) of HIV-2 (HIV-2)
[6] = target: major capsid protein (p24) of HIV-1 (HIV-1) (UniProt P04591); remark: listed apart in the source
[7] = 27.5 μM 14C-GPG-NH2, dialysis 4° C. 2 days, dialysis buffer 1.816
[8] = radioactivity relative to dialysis buffer

## NCC(=O)N1CCC[C@H]1C(=O)NCC(N)=O [GPG-NH2, glycyl-prolyl-glycine amide] (H-Gly-Pro-Gly-NH2)
BSA; [7]
  μCi/ml, sample BSA: 1.674 μCi/ml
BSA; in words
  radioactive GPG-NH2 associated with BSA over the amount in the dialysis buffer: no appreciable amount
BSA; [8]
  times buffer, sample BSA: 0.922 times buffer
Recombinant gp120; [7]
  μCi/ml, sample gp120: 1.745 μCi/ml
Recombinant gp120; in words
  radioactive GPG-NH2 associated with gp120 over the amount in the dialysis buffer: no appreciable amount
Recombinant gp120; [8]
  times buffer, sample gp120: 0.961 times buffer
[1]; [7]
  μCi/ml, sample p24: 13.712 μCi/ml
[1]; [8]
  times buffer, sample p24: 7.5 times buffer and 7.551 times buffer
HIV-1
  effect on HIV-1 infection, in words: inhibited and/or prevented HIV-1 infection
HIV-1 SF-2 virus; 1 μM or 10 μM added 3, 5 or 7 days post infection
  capsid/nucleocapsid morphology of HIV-1 particles: discernable capsid structures that are distinct from the Ritonavir-treated particles
HIV-2
  effect on HIV-2 infection, in words: inhibit or prevent HIV-2 and SIV infection
SIV
  effect on SIV infection, in words: inhibit or prevent HIV-2 and SIV infection

## CC(C)c1nc(CN(C)C(=O)N[C@H](C(=O)N[C@@H](Cc2ccccc2)C[C@H](O)[C@H](Cc2ccccc2)NC(=O)OCc2cncs2)C(C)C)cs1 [Ritonavir, reference compound]
HIV-1 SF-2 virus; 0.5 μM control sample
  capsid/nucleocapsid morphology of HIV-1 particles: malformed structures that did not have a discernable nucleocapsid

## GPG-NH2 + GKG-NH2 + CQG-NH2 (pool or library)
[2]
  p24 in the supernatants of infected H9 cells, Day 14 HIV-1, reduction (%): 100%

## Gly-Pro-Gly-NH2 (peptide)
[3]
  p24 production of infected HUT78 cells (HIV-1 p24 ELISA), Day 7 HIV-1, reduction (%), peptide at 100 µM: 97%
[4]
  reverse transcriptase (RT) activity in the supernatants, Day 10 RT (OD): 0.103 OD
[5]
  reverse transcriptase (RT) activity in the supernatants, Day 10 RT (OD): 0.145 OD
[6]
  reverse transcriptase (RT) activity in the supernatants, Day 10 RT (OD): 0.074 OD

Source: US20030050242A1, “Protein polymerization inhibitors and methods of use” (priority 1999, published 2003)
